# Test results reported in patent US4626523A, “GRF analogs II” (The Salk Institute for Biological Studies, priority 1985, dated 1986).
# Square brackets hold non-standard residues; d marks the D form. Ends that are not written are not given here. Peptide text beside a SMILES is read from it. NMeY = CN[C@@H](Cc1ccc(O)cc1)C(=O)O; NMeF = CN[C@@H](Cc1ccccc1)C(=O)O; Nle = CCCC[C@H](N)C(=O)O
# What was measured:
# [1] = tested on: secretion of pituitary GH; test: in vivo GH secretion in freely running normal male rats pretreated with FLA-63; set-up: species or system rat; details: injection through indwelling catheter, blood samples prior to and 5 and 20 minutes after injection
# Experimental: In addition to the in vitro tests for secretion of growth hormone, in vivo experiments inject the synthetic peptides through an indwelling catheter into freely running normal male rats after pretreating them with FLA-63, a dopamine hydroxylase inhibitor that suppresses spontaneous GH secretion without affecting the response to exogenous GRF. Blood samples are taken through the same catheter immediately prior to and 5 and 20 minutes after injections. […] Dosages between about 100 nanograms and about 50 micrograms per Kg. of body weight are considered to be effective in causing secretion.
# [2] = tested on: cells of rat pituitary glands; test: in vitro GH release assay in cultured rat pituitary cells, side-by-side with hpGRF(1-40)-OH standard; assay type: cell-based; details: for Comparison % (GH release relative to hpGRF(1-40)-OH standard): equimolar concentrations, incubation 3 to 4 hours, immunoreactive GH in culture medium by radioimmunoassay, hpGRF(1-40)-OH = 100%
# Experimental: To determine the effectiveness of the various synthetic peptides to promote the release of growth hormone, in vitro assays are carried out using synthetic hpGRF(1-40)--OH as a standard in side-by-side comparison with equimolar concentrations of the various other analogs and fragments synthesized. Cultures are used which include cells of rat pituitary glands removed some three to five days previously. Cultures which are considered optimal for the secretion of growth hormone are used for the comparative testing, in the general manner described in Vale et al. Endocrinology , 91, 562-572 (1972) and as more particularly described in Vale et al. Endocrinology, (1983), in press. Incubation with the substance to be tested is carried out for 3 to 4 hours, and aliquots of the culture medium are removed and processed to measure their contents in immunoreactive GH(ir GH) by a well-characterized radioimmunoassay.
Compound,duration of GH-releasing action compared with hpGRF(1-32)-NH2 [1],stimulation of secretion of pituitary GH (GH levels in blood) ([1]; radioimmunoassay),Comparison % (GH release relative to hpGRF(1-40)-OH standard) [2] [%],"maximum effective concentration ([2]; in vitro, rat pituitary cell cultures) [nM]"
CC[C@H](C)[C@H](NC(=O)[C@H](C)NC(=O)[C@H](CC(=O)O)NC(=O)[C@H](C)NC(=O)[C@H](Cc1ccccc1)NC)C(=O)N[C@@H](Cc1ccccc1)C(=O)N[C@H](C(=O)N[C@@H](CC(N)=O)C(=O)N[C@@H](CO)C(=O)N[C@@H](Cc1ccc(O)cc1)C(=O)N[C@@H](CCCNC(=N)N)C(=O)N[C@@H](CCCCN)C(=O)N[C@H](C(=O)N[C@@H](CC(C)C)C(=O)NCC(=O)N[C@@H](CCC(N)=O)C(=O)N[C@@H](CC(C)C)C(=O)N[C@@H](CO)C(=O)N[C@@H](C)C(=O)N[C@@H](CCCNC(=N)N)C(=O)N[C@@H](CCCCN)C(=O)N[C@@H](CC(C)C)C(=O)N[C@@H](CC(C)C)C(=O)N[C@@H](CCC(N)=O)C(=O)N[C@@H](CC(=O)O)C(=O)N[C@H](C(=O)N[C@@H](CCSC)C(=O)N[C@@H](CO)C(=O)N[C@@H](CCCNC(=N)N)C(=O)N[C@@H](CCC(N)=O)C(=O)N[C@@H](CCC(N)=O)C(=O)NCC(N)=O)[C@@H](C)CC)C(C)C)[C@@H](C)O [[N^a MePhe^1]-hpGRF(1-32)-NH2] (H-[NMeF]ADAIFTNSYRKVLGQLSARKLLQDIMSRQQG-NH2),substantially longer duration that hpGRF(1-32)-NH2,powerful stimulators of the secretion of pituitary GH,12,5 to 10
"CCCC[C@H](NC(=O)[C@@H](NC(=O)[C@H](CCC(=O)O)NC(=O)[C@H](Cc1c[nH]cn1)NC(=O)[C@H](CC(C)C)NC(=O)[C@H](CC(C)C)NC(=O)[C@H](CCCCN)NC(=O)[C@H](CCCNC(=N)N)NC(=O)[C@H](C)NC(=O)[C@H](Cc1ccc(O)cc1)NC(=O)[C@H](CC(C)C)NC(=O)[C@H](CCC(N)=O)NC(=O)CNC(=O)[C@H](CC(C)C)NC(=O)[C@@H](NC(=O)[C@H](CCCNC(=N)N)NC(=O)[C@H](CCCNC(=N)N)NC(=O)[C@H](Cc1ccc(O)cc1)NC(=O)[C@H](CO)NC(=O)[C@H](CO)NC(=O)[C@@H](NC(=O)[C@H](Cc1ccccc1)NC(=O)[C@@H](NC(=O)[C@H](C)NC(=O)[C@H](CC(=O)O)NC(=O)[C@H](C)NC(=O)[C@H](Cc1ccc(O)cc1)NC)[C@@H](C)CC)[C@@H](C)O)[C@@H](C)CC)[C@@H](C)CC)C(=O)N[C@@H](CC(N)=O)C(=O)N[C@@H](CCCNC(=N)N)C(N)=O [[N^a MeTyr^1, Nle^27]-rhGRF(1-29)-NH2, H-N^a MeTyr-Ala-Asp-Ala-Ile-Phe-Thr-Ser-Ser-Tyr-Arg-Arg-Ile-Leu-Gly-Gln-Leu-Tyr- Ala-Arg-Lys-Leu-Leu-His-Glu-Ile-Nle-Asn-Arg-NH2] (H-[NMeY]ADAIFTSSYRRILGQLYARKLLHEI[Nle]NR-NH2)",,,1130,
"CC[C@H](C)[C@H](NC(=O)[C@H](C)NC(=O)[C@H](CC(=O)O)NC(=O)[C@H](C)NC(=O)[C@H](Cc1ccc(O)cc1)NC)C(=O)N[C@@H](Cc1ccccc1)C(=O)N[C@H](C(=O)N[C@@H](CC(N)=O)C(=O)N[C@@H](CO)C(=O)N[C@@H](Cc1ccc(O)cc1)C(=O)N[C@@H](CCCNC(=N)N)C(=O)N[C@@H](CCCCN)C(=O)N[C@H](C(=O)N[C@@H](CC(C)C)C(=O)NCC(=O)N[C@@H](CCC(N)=O)C(=O)N[C@@H](CC(C)C)C(=O)N[C@@H](CO)C(=O)N[C@@H](C)C(=O)N[C@@H](CCCNC(=N)N)C(=O)N[C@@H](CCCCN)C(=O)N[C@@H](CC(C)C)C(=O)N[C@@H](CC(C)C)C(=O)N[C@@H](CCC(N)=O)C(=O)N[C@@H](CC(=O)O)C(=O)N[C@H](C(=O)N[C@@H](CCSC)C(=O)N[C@@H](CO)C(=O)N[C@@H](CCCNC(=N)N)C(=O)N[C@@H](CCC(N)=O)C(=O)N[C@@H](CCC(N)=O)C(=O)NCC(N)=O)[C@@H](C)CC)C(C)C)[C@@H](C)O [[N^a MeTyr^1]hpGRF(1-32)-NH2, H-N^a MeTyr-Ala-Asp-Ala-Ile-Phe-Thr-Asn-Ser-Tyr-Arg-Lys-Val-Leu-Gly-Gln-Leu-Ser- Ala-Arg-Lys-Leu-Leu-Gln-Asp-Ile-Met-Ser-Arg-Gln-Gln-Gly-NH2]",,,184,
H-C^a MePhe(4Cl)-Ala-Asp-Ala-Ile-Phe-Thr-Asn-Ser-Tyr-Arg-Lys-Val-Leu-Gly-Gln-Leu-Ser-Ala-Arg-Lys-Leu-Leu-Gln-Asp-Ile-Met-Ser-Arg-Gln-Gln-Gly-NH2 [[C^a Me/4Cl-Phe^1]-hpGRF(1-32)-NH2],,,5,
"hpGRF(1-40)-OH (YADAIFTNSYRKVLGQLSARKLLQDIMSRQQGESNQERGA-OH; UniProt P01286 32-71, looked up, fragment) [synthetic human pancreas GH releasing factor fragment used as standard in the in vitro assay, reference compound]",,,100,
